Experimental data reported in US12583818B2 (DAEGU-GYEONGBUK MEDICAL INNOVATION FOUNDATION, priority 2020, dated 2026).
Read-outs that look alike come from different tables or passages of the source.

Experiments:
[1] = tested on: A2780-SP cells (ovarian cancer stem cells); experiment: Sphere cell viability of A2780-SP cells (Cell-titer Glo); assay type: cell-based
Description: (§1) In order to confirm the inhibitory effect of the compound represented by formula 1 according to the present invention on the growth of MCF7, MCF7-SP, A2780 or A2780-SP cells, the following experiment was performed, and the results are shown in Tables 4 and 5 below.
On the other hand, A2780-SP cells (ovarian cancer stem cells) were plated in an Ultra-Low Attachment round bottom 96-well plate (corning) at the density of 1,500 viable cells per well, and cultured in cancer stem cell medium. The cancer stem cell medium is composed of the neurobasal medium supplemented with 20 ng/ml of bFGF, 10 ng/ml of EGF, […] of amphotericin B, HEPES, Glutamax and B27.
On the next day of culture, the cells were treated with the compound of Examples 57, and 69 to 144, followed by culture for 8 days. The medium containing the compound was added thereto once again on the 4th day. Sphere cell viability was evaluated by Cell-titer Glo (Promega, WC, USA), and luciferase activity was detected using a Tecan plate reader (Biocompare, USA).

[2] = molecular target: T1, Pin1 (Homo sapiens, UniProt Q13526); experiment: Evaluation of Pin1 enzyme inhibitory activity (Sensolyte Green Pin1 assay kit); assay type: biochemical
T1 construct: purchased Anaspec
In short: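 Pin1 activity was measured with a fluorogenic kit assay (Sensolyte Green) using substrate prepared at 1 μM and protein at 50 μg/ml, both pre-mix concentrations. Compound working solutions were 100, 10, 1 or 0.1 μM, and reactions ran 2 h at room temperature in the dark, read at 490/520 nm. Inhibition was graded A–D by concentration.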

[3] = tested on: A2780 cells (ovarian cancer cells); experiment: Cell viability of A2780 cells (Cell-titer Glo); assay type: cell-based; settings: Homo sapiens
Description: as §1
In addition, A2780 cells (ovarian cancer cells) were plated in a 96-well plate at the density of 3000 viable cells per well, and cultured in RPMI-1640 medium supplemented with 10% FBS and 1% penicillin/streptomycin.
On the next day of culture, the cells were treated with the compound of Examples 57, and 69 to 144, followed by culture for 3 days. Cell viability was evaluated by Cell-titer Glo (Promega, WC, USA), and luciferase activity was detected using a Tecan plate reader (Biocompare, USA).

[4] = 192 h, sphere cell viability, culture for 8 days, read-out: A2780-SP
[5] = concentration at which the Pin1 enzyme activity is inhibited, 2 hours at room temperature, fluorescence 490 nm/520 nm, read-out: Pin 1 inhibition
[6] = 72 h, cell viability, culture for 3 days, read-out: A2780
[7] = Table 5, read-out: the concentration (second list of b710, cell line not named; matches A2780-SP column)
[8] = Table 2, read-out: concentration at which Pin1 inhibitory activity was exhibited
[9] = A2780, Table 5, read-out: A2780 cell concentration

T1 sequence (Q13526 whole entry): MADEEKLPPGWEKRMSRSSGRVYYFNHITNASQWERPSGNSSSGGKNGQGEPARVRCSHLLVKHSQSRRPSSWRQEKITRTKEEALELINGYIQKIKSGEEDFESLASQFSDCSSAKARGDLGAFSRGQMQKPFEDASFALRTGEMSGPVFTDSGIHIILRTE

Row | IC50 [1, 4] [nM] | IC50 [2, 5] [nM] | IC50 [3, 6] [nM] | IC50 [1, 7] [nM] | IC50 [2, 8] [nM] | IC50 [3, 9] [nM] | Compound
1 | < 1000 | < 1000 | 1000 to 10000 | < 1000 | < 1000 | < 10000 | C[C@@H]1CN(CCCOc2ccc(S(=O)(=O)NCCCc3c[nH]c4ccc(Cl)cc34)cc2)CCN1 [Example 108, (R)—N-(3-(5-chloro-1H-indol-3-yl)propyl)-4-(3-(3-methylpiperazin-1-yl)propoxy)benzenesulfonamide]
2 | < 1000 | < 1000 | 1000 to 10000 | < 1000 | < 1000 | < 10000 | C[C@H]1CN(CCCOc2ccc(S(=O)(=O)NCCCc3c[nH]c4ccc(Cl)cc34)cc2)CCN1 [Example 109, (S)—N-(3-(5-chloro-1H-indol-3-yl)propyl)-4-(3-(3-methylpiperazin-1-yl)propoxy)benzenesulfonamide]
3 | < 1000 | 1000 to 10000 | > 10000 | < 1000 | – | – | C[C@@H]1CN(CCCOc2ccc(S(=O)(=O)NCCCc3c[nH]c4ccc(Cl)cc34)cc2)C[C@H](C)N1 [Example 110, N-(3-(5-chloro-1H-indol-3-yl)propyl)-4-(3-((3S,5R)-3,5-dimethylpiperazin-1-yl)propoxy)benzenesulfonamide]
4 | < 1000 | 1000 to 10000 | > 10000 | < 1000 | – | – | C[C@H]1CN(CCCOc2ccc(S(=O)(=O)NCCCc3c[nH]c4ccc(Cl)cc34)cc2)CCN1C [Example 111, (S)—N-(3-(5-chloro-1H-indol-3-yl)propyl)-4-(3-(3,4-dimethylpiperazin-1-yl)propoxy)benzenesulfonamide]
5 | < 1000 | < 1000 | > 10000 | < 1000 | < 1000 | – | CN1CCN(CCCCc2ccc(S(=O)(=O)NCCCc3c[nH]c4ccc(Cl)cc34)cc2)CC1 [Example 112, N-(3-(5-chloro-1H-indol-3-yl)propyl)-4-(4-(4-methylpiperazin-1-yl)butyl)benzenesulfonamide]
6 | 1000 to 10000 | < 1000 | 1000 to 10000 | – | < 1000 | < 10000 | CN1CCN(c2cc(Oc3ccc(S(=O)(=O)NCCCc4c[nH]c5ccc(Cl)cc45)cc3)cc(N3CCN(C)CC3)c2)CC1 [Example 130, 4-(3,5-bis(4-methylpiperazine-1-yl)phenoxy)-N-(3-(5-chloro-1H-indole-3-yl)propyl)benzenesulfonamide]
7 | 1000 to 10000 | < 1000 | > 10000 | – | < 1000 | – | CN1CCN(c2ccnc(Nc3ccc(S(=O)(=O)NCCCc4c[nH]c5ccc(Cl)cc45)cc3)c2)CC1 [Example 133, N-(3-(5-chloro-1H-indol-3-yl)propyl)-4-((4-(4-methylpiperazin-1-yl)pyridin-2-yl)amino)benzenesulfonamide]
8 | < 1000 | < 1000 | > 10000 | < 1000 | < 1000 | – | O=S(=O)(NCCCc1c[nH]c2ccc(Cl)cc12)c1ccc(Nc2cc(N3CCNCC3)ccn2)cc1 [Example 134, N-(3-(5-chloro-1H-indol-3-yl)propyl)-4-((4-(piperazin-1-yl)pyridin-2-yl)amino)benzenesulfonamide]
9 | 1000 to 10000 | < 1000 | > 10000 | – | < 1000 | – | CN1CCN(c2cc(F)cc(Oc3ccc(S(=O)(=O)NCCCc4c[nH]c5ccc(Cl)cc45)cc3)c2)CC1 [Example 137, N-(3-(5-chloro-1H-indol-3-yl)propyl)-4-(3-fluoro-5-(4-methylpiperazin-1-yl)phenoxy)benzenesulfonamide]
10 | 1000 to 10000 | < 1000 | > 10000 | – | < 1000 | – | CN1CCN(c2cc(Br)cc(Oc3ccc(S(=O)(=O)NCCCc4c[nH]c5ccc(Cl)cc45)cc3)c2)CC1 [Example 138, N-(3-(5-chloro-1H-indole-3-yl)propyl)-4-(3-bromo-5-(4-methylpiperazine-1-yl)phenoxy)benzenesulfonamide]
11 | 1000 to 10000 | < 1000 | – | – | < 1000 | – | CN1CCN(CCCOc2ccc(C(=O)NCCCc3c[nH]c4ccc(Cl)cc34)cc2)CC1 [Example 143, N-(3-(5-chloro-1H-indole-3-yl)propyl)-4-(3-(4-methylpiperazine-1-yl)propoxy)benzamide]
12 | 1000 to 10000 | < 1000 | > 10000 | – | < 1000 | – | O=S(=O)(NCCCc1c[nH]c2ccc(Cl)cc12)c1cnc(NCCCN2CCNCC2)s1 [Example 146, N-(3-(5-chloro-1H-indole-3-yl)propyl)-2-((3-(piperazine-1-yl)propyl)amino)thiazole-5-sulfonamide]
13 | < 1000 | < 1000 | > 10000 | < 1000 | < 1000 | – | CC(CCc1c[nH]c2ccc(Cl)cc12)NS(=O)(=O)c1ccc(OCCCN2CCN(C)CC2)cc1 (stereo not shown) [Example 151]
14 | < 1000 | < 1000 | 1000 to 10000 | < 1000 | < 1000 | < 10000 | O=S(=O)(NCCCc1c[nH]c2ccc(Br)cc12)c1ccc(OCCCN2CCNCC2)cc1 [Example 153, N-(3-(5-bromo-1H-indole-3-yl)propyl)-4-(3-(piperazine-1-yl)propoxy)benzenesulfonamide]

Second part, the compound before the results:

Row | Compound | IC50 [1, 4] [nM] | IC50 [2, 5] [nM] | IC50 [3, 6] [nM] | IC50 [1, 7] [nM] | IC50 [2, 8] [nM] | IC50 [3, 9] [nM]
15 | O=S(=O)(NCCCc1c[nH]c2ccc(Cl)cc12)c1cccc(OCCCN2CCCCC2)c1 [Example 95, N-(3-(5-chloro-1H-indol-3-yl)propyl)-3-(3-(piperidin-1-yl)propoxy)benzenesulfonamide] | 1000 to 10000 | 1000 to 10000 | > 10000 | – | – | –
16 | O=S(=O)(NCCCc1c[nH]c2ccc(Cl)cc12)c1ccc(OCCCN2CCCC2)cc1 [Example 100, N-(3-(5-chloro-1H-indol-3-yl)propyl)-4-(3-(pyrrolidin-1-yl)propoxy)benzenesulfonamide] | < 1000 | < 1000 | 1000 to 10000 | < 1000 | < 1000 | < 10000
17 | CN1CCN(c2cc(Nc3ccc(S(=O)(=O)NCCCc4c[nH]c5ccc(Cl)cc45)cc3)nc(N3CCN(C)CC3)c2)CC1 [Example 141, 4-((4,6-bis(4-methylpiperazin-1-yl)pyridin-2-yl)amino)-N-(3-(5-chloro-1H-indol-3-yl)propyl)benzenesulfonamide] | 1000 to 10000 | < 1000 | – | – | < 1000 | –
18 | CS(=O)(=O)CCCOc1ccc(S(=O)(=O)NCCCc2c[nH]c3ccc(Cl)cc23)cc1 [Example 145, N-(3-(5-chloro-1H-indol-3-yl)propyl)-4-(3-(methylsulfonyl)propoxy)benzenesulfonamide] | > 10000 | < 1000 | > 10000 | – | < 1000 | –
19 | Cc1[nH]c2ccc(Cl)cc2c1CCCNS(=O)(=O)c1ccc(OCCCN2CCN(C)CC2)cc1 [Example 147, N-(3-(5-chloro-2-methyl-1H-indole-3-yl)propyl)-4-(3-(4-methylpiperazine-1-yl)propoxy)benzenesulfonamide] | > 10000 | < 1000 | > 10000 | – | < 1000 | –
20 | O=S(=O)(NCCCc1c[nH]c2ccc(Cl)cc12)c1ccc(CCCCn2ccnc2)cc1 [Example 148] | 1000 to 10000 | < 1000 | > 10000 | – | < 1000 | –
21 | CN1CCN(CCCOc2ccc(S(=O)(=O)Nc3ccccc3Cc3c[nH]c4ccc(Cl)cc34)cc2)CC1 [Example 149, N-(2-((5-chloro-1H-indole-3-yl)methyl)phenyl)-4-(3-(4-methylpiperazine-1-yl)propoxy)benzenesulfonamide] | > 10000 | < 1000 | > 10000 | – | < 1000 | –
22 | O=S(=O)(Nc1ccccc1Cc1c[nH]c2ccc(Cl)cc12)c1ccc(OCCCN2CCNCC2)cc1 [Example 150, N-(2-((5-chloro-1H-indol-3-yl)methyl)phenyl)-4-(3-(piperazin-1-yl)propoxy)benzenesulfonamide] | < 1000 | < 1000 | > 10000 | < 1000 | < 1000 | –
23 | CC(CCc1c[nH]c2ccc(Cl)cc12)NS(=O)(=O)c1ccc(OCCCN2CCNCC2)cc1 (stereo not shown) [Example 152, N-(4-(5-chloro-1H-indol-3-yl)butan-2-yl)-4-(3-(piperazin-1-yl)propoxy)benzenesulfonamide] | < 1000 | < 1000 | > 10000 | < 1000 | < 1000 | –
